# Test results reported in PubChem BioAssay (NCI).
#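 Results reflect a 48-hour exposure of cells in 96-well plates to compound at five concentrations. The concentration for 50% growth inhibition is given as GI50. TGI is the concentration that stops growth completely.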
# How the values were obtained:
# Assay in all cases: NCI-60 cell line screen, 48 h
# [1] = tested on: SN12C renal
# [2] = tested on: T-47D breast
# [3] = tested on: EKVX NSCLC
# [4] = tested on: SF-295 CNS
# [5] = tested on: SR leukemia
# [6] = tested on: U251 CNS
# [7] = tested on: NCI-H23 lung
# [8] = tested on: HOP-92 NSCLC
# [9] = tested on: SF-539 CNS
# [10] = tested on: UACC-257 melanoma
# [11] = tested on: LOX IMVI melanoma
# [12] = tested on: HCT-15 colon
# [13] = tested on: MCF7 breast
# [14] = tested on: UACC-62 melanoma
# [15] = tested on: SK-MEL-5 melanoma
# [16] = tested on: OVCAR-5 ovarian
# [17] = tested on: OVCAR-4 ovarian
# [18] = tested on: TK-10 renal
# [19] = tested on: A549 NSCLC
# [20] = tested on: SK-MEL-28 melanoma
# [21] = tested on: NCI/ADR-RES ovarian
# [22] = tested on: MOLT-4 leukemia
# [23] = tested on: MDA-MB-231 breast
# [24] = tested on: 786-0 renal
# [25] = tested on: SNB-19 CNS
# [26] = tested on: SW-620 colon
# [27] = tested on: BT-549 breast
# [28] = tested on: SK-OV-3 ovarian
# [29] = tested on: OVCAR-8 ovarian
# [30] = tested on: ACHN renal
# [31] = tested on: SNB-75 CNS
# [32] = tested on: HCT-116 colon
# [33] = tested on: HT29 colon
# [34] = tested on: HOP-62 NSCLC
# [35] = tested on: M14 melanoma
# [36] = tested on: MDA-MB-435
# [37] = tested on: HL-60(TB) leukemia
# [38] = tested on: HS 578T breast
# [39] = tested on: NCI-H226 lung
# [40] = tested on: HCC-2998 colon
# [41] = tested on: PC-3 prostate
# [42] = tested on: SK-MEL-2 melanoma
# [43] = tested on: OVCAR-3 ovarian
# [44] = tested on: RXF 393 renal
# [45] = tested on: CCRF-CEM leukemia
# [46] = tested on: KM12 colon
# [47] = tested on: DU-145 prostate
# [48] = tested on: MALME-3M melanoma
# [49] = tested on: CAKI-1 renal
# [50] = tested on: A498 renal
# [51] = tested on: NCI-H460 lung
# [52] = tested on: K-562 leukemia
# [53] = tested on: COLO 205 colon
# [54] = tested on: SF-268 CNS
smiles,measurement,setting,value
Oc1ccc(CCNc2nc3ccccc3c3[nH]c4ccccc4c23)cc1O,GI50,[1],1940 nM
same,TGI,[1],7.29 µM
same,GI50,[2],14.2 µM
same,TGI,[2],32.2 µM
same,GI50,[3],8.99 µM
same,TGI,[3],37.4 µM
same,GI50,[4],5.51 µM
same,TGI,[4],> 100 µM
same,GI50,[5],1920 nM
same,TGI,[5],5.74 µM
same,GI50,[6],2530 nM
same,TGI,[6],6.51 µM
same,GI50,[7],6.87 µM
same,TGI,[7],22.7 µM
same,GI50,[8],1310 nM
same,TGI,[8],2950 nM
same,GI50,[9],2020 nM
same,TGI,[9],3.6 µM
same,GI50,[10],25.5 µM
same,TGI,[10],40.2 µM
same,GI50,[11],1770 nM
same,TGI,[11],3.28 µM
same,GI50,[12],1900 nM
same,TGI,[12],3.95 µM
same,GI50,[13],3.13 µM
same,GI50,[14],3.86 µM
same,TGI,[14],13.4 µM
same,GI50,[15],3.2 µM
same,TGI,[15],11.5 µM
same,GI50,[16],14 µM
same,TGI,[16],26.9 µM
same,GI50,[17],4.8 µM
same,TGI,[17],16.9 µM
same,GI50,[18],5.37 µM
same,TGI,[18],19 µM
same,GI50,[19],2260 nM
same,TGI,[19],5.95 µM
same,GI50,[20],5.85 µM
same,TGI,[20],18.3 µM
same,GI50,[21],9.15 µM
same,TGI,[21],32.2 µM
same,GI50,[22],2160 nM
same,TGI,[22],5.38 µM
same,GI50,[23],2980 nM
same,TGI,[23],11.8 µM
same,GI50,[24],1620 nM
same,TGI,[24],2980 nM
same,GI50,[25],3.06 µM
same,TGI,[25],11.2 µM
same,GI50,[26],1660 nM
same,TGI,[26],3.44 µM
same,GI50,[27],9.27 µM
same,TGI,[27],21.3 µM
same,GI50,[28],10.7 µM
same,TGI,[28],22.6 µM
same,GI50,[29],1900 nM
same,TGI,[29],3.85 µM
same,GI50,[30],2140 nM
same,TGI,[30],5.76 µM
same,GI50,[31],15.9 µM
same,TGI,[31],33.2 µM
same,GI50,[32],1400 nM
same,TGI,[32],2700 nM
same,GI50,[33],3.2 µM
same,TGI,[33],11.1 µM
same,GI50,[34],3.78 µM
same,TGI,[34],13.5 µM
same,GI50,[35],2620 nM
same,TGI,[35],7.28 µM
same,GI50,[36],1700 nM
same,TGI,[36],3.26 µM
same,GI50,[37],2070 nM
same,TGI,[37],4.36 µM
same,GI50,[38],8.28 µM
same,TGI,[38],> 100 µM
same,GI50,[39],11 µM
same,TGI,[39],24.3 µM
same,GI50,[40],3.54 µM
same,TGI,[40],14.1 µM
same,GI50,[41],1510 nM
same,TGI,[41],3.63 µM
same,GI50,[42],1730 nM
same,TGI,[42],3.59 µM
same,GI50,[43],1770 nM
same,TGI,[43],3.7 µM
same,GI50,[44],1910 nM
same,TGI,[44],3.59 µM
same,GI50,[45],1590 nM
same,TGI,[45],4.35 µM
same,GI50,[46],1590 nM
same,TGI,[46],4.19 µM
same,GI50,[47],2450 nM
same,TGI,[47],7.44 µM
same,GI50,[48],2230 nM
same,TGI,[48],6.28 µM
same,GI50,[49],11 µM
same,TGI,[49],22.9 µM
same,GI50,[50],13.6 µM
same,TGI,[50],26.5 µM
same,GI50,[51],2170 nM
same,TGI,[51],5.54 µM
same,GI50,[52],1830 nM
same,TGI,[52],4.13 µM
same,GI50,[53],2270 nM
same,TGI,[53],6.8 µM
same,GI50,[54],5.7 µM
same,TGI,[54],30.1 µM
